ChEMBL document CHEMBL1130368, “Potent carboxylate inhibitors of stromelysin containing P2 piperazic acids and P1 biaryl moeities” (Bioorg Med Chem Lett, 1997)

Target: Stromelysin-1 (Homo sapiens, UniProt P08254)
Test: Inhibition of Matrix metalloprotease-3 by MCA peptide assay

Chain of Stromelysin-1 (P08254 whole entry): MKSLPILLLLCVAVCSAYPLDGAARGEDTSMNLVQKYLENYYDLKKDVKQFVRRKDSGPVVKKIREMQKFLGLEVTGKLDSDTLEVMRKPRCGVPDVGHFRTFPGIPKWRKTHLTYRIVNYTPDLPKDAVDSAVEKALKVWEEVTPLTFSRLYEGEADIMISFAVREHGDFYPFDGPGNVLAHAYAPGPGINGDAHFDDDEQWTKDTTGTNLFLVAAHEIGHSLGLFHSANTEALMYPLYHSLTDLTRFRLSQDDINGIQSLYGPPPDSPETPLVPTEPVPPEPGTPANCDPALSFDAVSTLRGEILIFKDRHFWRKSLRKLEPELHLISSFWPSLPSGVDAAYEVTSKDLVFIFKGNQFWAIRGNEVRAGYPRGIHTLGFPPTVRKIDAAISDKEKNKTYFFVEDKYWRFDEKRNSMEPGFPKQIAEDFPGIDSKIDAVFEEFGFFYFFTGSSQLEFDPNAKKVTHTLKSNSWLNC

Row | SMILES | Ki [nM] | IC50 [nM]
1 | CCCC[C@@H](C[C@@H](CCc1ccc(-c2ccccc2)cc1)C(=O)N1NCCC[C@H]1C(=O)NC)C(=O)O | 42 | –
2 | CNC(=O)[C@@H]1CCCNN1C(=O)[C@H](CC(C)C)[C@H](C)C(=O)NO | – | 30
3 | CNC(=O)[C@H](Cc1ccc(OC)cc1)NC(=O)[C@H](CCc1ccc(-c2ccccc2)cc1)C[C@H](C)C(=O)O | – | 81
4 | CNC(=O)[C@@H]1CCCNN1C(=O)[C@H](CCOc1ccc(Cc2ccccc2)cc1)N[C@H](C)C(=O)O | 552 | –
5 | CCCC[C@@H](C[C@@H](CCc1ccc(-c2ccccc2)cc1)C(=O)N[C@@H](Cc1ccc(OC)cc1)C(=O)NC)C(=O)O | 21 | –
6 | CCCCc1ccc(OCC[C@H](N[C@H](C)C(=O)O)C(=O)N2NCCC[C@H]2C(=O)NC)cc1 | 550 | –
7 | CNC(=O)[C@@H]1CCCNN1C(=O)[C@H](CCOc1ccc(C(C)C)cc1)N[C@H](C)C(=O)O | – | > 200000
8 | CNC(=O)[C@H](Cc1ccc(OC)cc1)NC(=O)[C@H](CCc1ccccc1)C[C@H](C)C(=O)O | – | 55000
9 | CNC(=O)[C@@H]1CCCNN1C(=O)[C@H](CCOc1ccc(-c2ccccc2)cc1)N[C@H](C)C(=O)O | 77 | –
10 | CNC(=O)[C@@H]1CCCNN1C(=O)[C@H](CCOc1ccc(CC2CCCC2)cc1)N[C@H](C)C(=O)O | – | > 200000
